These results are taken from US4812483A, “Insecticidal alkenes” (Imperial Chemical Industries PLC, priority 1985, dated 1989).

Holding throughout (assay type): in vivo
Assay [1] relates to Musca domestica (houseflies - adults). The assay is described as follows: Contact test, mortality of houseflies (MD). The settings on record: 24 h, cotton wool/sugar, 1 day, read-out: grading of mortality, MD. On the procedure: (§1) The activity of the compound was determined using a variety of insect pests. The compound was used in the form of liquid preparations containing 500 parts per million (ppm) by weight of the compound. The preparations were made by dissolving the compound in acetone and diluting the solutions with water containing 0.01% by weight of a wetting agent sold under the trade name "LISSAPOL" NX until the liquid preparations contained the required concentration of the compound. "Lissapol" is a Registered Trade Mark.
(§2) The test procedure adopted with regard to each pest was basically the same and comprised supporting a number of the pests on a medium which was usually a host plant or a foodstuff on which the pests feed, and treating either or both the pests and the medium with the preparations. The mortality of the pests was then assessed at periods usually varying from one to three days after the treatment.
(§3) The results of the tests are given in Table III for each of the compounds, at the rate in parts per million given in the second column as a grading of mortality designated as A, B or C wherein A indicates 80-100% mortality or knockdown, B indicates 50-79% mortality or knockdown and C indicates less than 50% mortality or knockdown.
(§4) In Table III the pest organism used is designated by a letter code and the pests species, the support medium or food, and the type and duration of test is given in Table II.

In assay [2] the test system is Heliothis viriscens (tobacco budworm). The assay is described as follows: whole plant or invertebrate. The settings on record: in Gossypium hirsutum, 72 h, read-out: grading of mortality, HV. The protocol:
as §1, §2, §3, §4

The test system of assay [3] is Blattella germanica (cockroach nymphs). The assay is described as follows: Residual test, mortality of cockroach nymphs (BG). The conditions noted are these: 72 h, plastic pot, 3 days, read-out: grading of mortality, BG. On the procedure:
as §1, §2, §3, §4

In assay [4] the test system is Diabrotica balteata (rootworm larvae). As to the kind of experiment: Residual test, mortality of rootworm larvae (DB). The settings on record: 72 h, filter paper/maize seed, 3 days, read-out: grading of mortality, DB. On the procedure:
as §1, §2, §3, §4

The subject of assay [5] is Tetranychus urticae (red spider mites - adult). The assay is described as follows: Contact test, mortality of red spider mites (TU). The settings on record: 72 h, French bean leaf, 3 days, read-out: grading of mortality, TU. The protocol: as §1, §2, §3, §4
(red spider mites - adult)

The test system of assay [6] is Nilaparvata lugens (green leaf hopper). The assay is described as follows: Contact test, mortality of Nilaparvata lugens (NL). The conditions noted are these: 144 h, cabbage leaf, 6 days, read-out: grading of mortality, NL. On the procedure:
as §1, §2, §3, §4

In the next assay the test system is Myzus persicae (aphids). As to the kind of experiment: Contact test, mortality of aphids (MP). The settings on record: 48 h, leaf, 2 days, read-out: grading of mortality, MP. On the procedure:
as §1, §2, §3, §4

For assay [7], the system named is Chilo partellurs (Stem borers). As to the kind of experiment: Residual test, mortality of stem borers (CP). The settings on record: 72 h, oil seed rape leaf, 3 days, read-out: grading of mortality, CP. The protocol:
as §1, §2, §3, §4

As usually defined, the mortality is the percentage killed. Consider `CC(C)(/C=C/Br)COCc1cccc(Oc2ccccc2)c1` [Compound 7, E-2,2-dimethyl-1-(3-phenoxybenzyloxy)-4-bromobut-3-ene], for which the mortality at 500 ppm in assay [1] is below 50%; in assay [2], below 50%; in assay [3] it was below 50%; in assay [4], below 50%; in assay [5] it was below 50%; in assay [6], 50 to 79%. In addition, the mortality at 500 ppm (in the assay with Myzus persicae (aphids); in assay [7]) was below 50% each time.
With `C=CC1(COCc2cccc(Oc3ccccc3)c2)CC1` [Compound 6, 1-(3-phenoxybenzyloxymethyl)-1-vinylcyclopropane], the mortality at 500 ppm in assay [1] was below 50%; in assay [2] it was below 50%; in assay [3], below 50%; in assay [4], below 50%; in assay [5], below 50%; in assay [6], 50 to 79%. Besides, the mortality at 500 ppm (with Myzus persicae (aphids); in assay [7]) was below 50% in each case.
